Source: patent US8574563B2 (Bristol-Myers Squibb Company, priority 2006, dated 2013)

System: HCV 1b-377-neo replicon cells
Assay: HCV replicon assay, HCV 1b-377-neo replicon cells (1b FRET)
Type: cell-based, Hepatitis C virus genotype 1b
Settings: Hepatitis C virus, HCV 1b-377-neo replicon cells; HCV 1b genotype; read-out: EC50 range against HCV 1b (Table 2, Range)
In short: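 FRET-based replicon assay in HCV 1b-377-neo cells, including a comparison line carrying the NS5A Y2065H mutation that confers resistance to a reference compound.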

Structure (SMILES) | EC50 [pM]
C=CCCOC(=O)N[C@H](C(=O)N1CCC[C@H]1c1ncc(-c2ccc(-c3ccc(-c4cnc([C@@H]5CCCN5C(=O)[C@@H](NC(=O)OCCC=C)C(C)C)[nH]4)cc3)cc2)[nH]1)C(C)C [LS16, 3-buten-1-yl ((1S)-1-(((2S)-2-(5-(4′-(2-((2S)-1-((2S)-2-(((3-buten-1-yloxy)carbonyl)amino)-3-methylbutanoyl)-2-pyrrolidinyl)-1H-imidazol-5-yl)-4-biphenylyl)-1H-imidazol-2-yl)-1-pyrrolidinyl)carbonyl)-2-methylpropyl)carbamate] | 1000 to 99000
CNCC(=O)N1CCC[C@H]1c1ncc(-c2ccc(-c3ccc(-c4cnc([C@@H]5CCCN5C(=O)[C@@H](NC(=O)OC)C(C)C)[nH]4)cc3)cc2)[nH]1 [LS20, methyl ((1S)-2-methyl-1-(((2S)-2-(5-(4′-(2-((2S)-1-(N-methylglycyl)-2-pyrrolidinyl)-1H-imidazol-5-yl)-4-biphenylyl)-1H-imidazol-2-yl)-1-pyrrolidinyl)carbonyl)propyl)carbamate] | 1 to 999
CCNCC(=O)N1CCC[C@H]1c1ncc(-c2ccc(-c3ccc(-c4cnc([C@@H]5CCCN5C(=O)[C@@H](NC(=O)OC)C(C)C)[nH]4)cc3)cc2)[nH]1 [LS21, methyl ((1S)-1-(((2S)-2-(5-(4′-(2-((2S)-1-(N-ethylglycyl)-2-pyrrolidinyl)-1H-imidazol-5-yl)-4-biphenylyl)-1H-imidazol-2-yl)-1-pyrrolidinyl)carbonyl)-2-methylpropyl)carbamate] | 1 to 999
COC(=O)N[C@H](C(=O)N1CCC[C@H]1c1ncc(-c2ccc(-c3ccc(-c4cnc([C@@H]5CCCN5C(=O)CNCc5ccccc5)[nH]4)cc3)cc2)[nH]1)C(C)C [LS22, methyl ((1S)-1-(((2S)-2-(5-(4′-(2-((2S)-1-(N-benzylglycyl)-2-pyrrolidinyl)-1H-imidazol-5-yl)-4-biphenylyl)-1H-imidazol-2-yl)-1-pyrrolidinyl)carbonyl)-2-methylpropyl)carbamate] | 1 to 999
COC(=O)N[C@H](C(=O)N1CCC[C@H]1c1ncc(-c2ccc(-c3ccc(-c4cnc([C@@H]5CCCN5C(=O)CNCC(C)C)[nH]4)cc3)cc2)[nH]1)C(C)C [LS23, methyl ((1S)-1-(((2S)-2-(5-(4′-(2-((2S)-1-(N-isobutylglycyl)-2-pyrrolidinyl)-1H-imidazol-5-yl)-4-biphenylyl)-1H-imidazol-2-yl)-1-pyrrolidinyl)carbonyl)-2-methylpropyl)carbamate] | 1 to 999
CCC(C)NCC(=O)N1CCC[C@H]1c1ncc(-c2ccc(-c3ccc(-c4cnc([C@@H]5CCCN5C(=O)[C@@H](NC(=O)OC)C(C)C)[nH]4)cc3)cc2)[nH]1 (stereo partly drawn) [LS24, methyl ((1S)-1-(((2S)-2-(5-(4′-(2-((2S)-1-(N-sec-butylglycyl)-2-pyrrolidinyl)-1H-imidazol-5-yl)-4-biphenylyl)-1H-imidazol-2-yl)-1-pyrrolidinyl)carbonyl)-2-methylpropyl)carbamate] | 1 to 999
COC(=O)N[C@H](C(=O)N1CCC[C@H]1c1ncc(-c2ccc(-c3ccc(-c4cnc([C@@H]5CCCN5C(=O)CNC(C)C)[nH]4)cc3)cc2)[nH]1)C(C)C [LS25, methyl ((1S)-1-(((2S)-2-(5-(4′-(2-((2S)-1-(N-isopropylglycyl)-2-pyrrolidinyl)-1H-imidazol-5-yl)-4-biphenylyl)-1H-imidazol-2-yl)-1-pyrrolidinyl)carbonyl)-2-methylpropyl)carbamate] | 1 to 999
COC(=O)N[C@H](C(=O)N1CCC[C@H]1c1ncc(-c2ccc(-c3ccc(-c4cnc([C@@H]5CCCN5C(=O)CN(C(C)C)C(C)C)[nH]4)cc3)cc2)[nH]1)C(C)C [LS26, methyl ((1S)-1-(((2S)-2-(5-(4′-(2-((2S)-1-(N,N-diisopropylglycyl)-2-pyrrolidinyl)-1H-imidazol-5-yl)-4-biphenylyl)-1H-imidazol-2-yl)-1-pyrrolidinyl)carbonyl)-2-methylpropyl)carbamate] | 1 to 999
COC(=O)N[C@H](C(=O)N1CCC[C@H]1c1ncc(-c2ccc(-c3ccc(-c4cnc([C@]5(C)CCCN5C(=O)[C@@H](NC(=O)OC)C(C)C)[nH]4)cc3)cc2)[nH]1)C(C)C [LS36, methyl ((1S)-1-(((2S)-2-(5-(4′-(2-((2S)-1-((2S)-2-((methoxycarbonyl)amino)-3-methylbutanoyl)-2-pyrrolidinyl)-1H-imidazol-5-yl)-4-biphenylyl)-1H-imidazol-2-yl)-2-methyl-1-pyrrolidinyl)carbonyl)-2-methylpropyl)carbamate] | 1 to 999
CC(C)[C@H](NC(=O)N(C)C)C(=O)N1CCC[C@H]1c1ncc(-c2ccc(-c3ccc(-c4cnc([C@@H]5CCCN5C(=O)[C@@H](NC(=O)N(C)C)C(C)C)[nH]4)cc3)cc2)[nH]1 [OL-1, 3-((1S)-1-(((2S)-2-(4-(4′-(2-((2S)-1-((2S)-2-((dimethylcarbamoyl)amino)-3-methylbutanoyl)-2-pyrrolidinyl)-1H-imidazol-4-yl)-4-biphenylyl)-1H-imidazol-2-yl)-1-pyrrolidinyl)carbonyl)-2-methylpropyl)-1,1-dimethylurea] | 1 to 999
C[C@H](NC(=O)N(C)C)C(=O)N1CCC[C@H]1c1ncc(-c2ccc(-c3ccc(-c4cnc([C@@H]5CCCN5C(=O)[C@H](C)NC(=O)N(C)C)[nH]4)cc3)cc2)[nH]1 [OL-2, 3-((1S)-2-((2S)-2-(4-(4′-(2-((2S)-1-(N-(dimethylcarbamoyl)-L-alanyl)-2-pyrrolidinyl)-1H-imidazol-4-yl)-4-biphenylyl)-1H-imidazol-2-yl)-1-pyrrolidinyl)-1-methyl-2-oxoethyl)-1,1-dimethylurea] | 1 to 999
CC(C)[C@H](NC(=O)OCCF)C(=O)N1CCC[C@H]1c1ncc(-c2ccc(-c3ccc(-c4cnc([C@@H]5CCCN5C(=O)[C@@H](NC(=O)OCCF)C(C)C)[nH]4)cc3)cc2)[nH]1 [OL-3, 2-fluoroethyl ((1S)-1-(((2S)-2-(4-(4′-(2-((2S)-1-((2S)-2-(((2-fluoroethoxy)carbonyl)amino)-3-methylbutanoyl)-2-pyrrolidinyl)-1H-imidazol-4-yl)-4-biphenylyl)-1H-imidazol-2-yl)-1-pyrrolidinyl)carbonyl)-2-methylpropyl)carbamate] | 1000 to 99000
CCC(CC)[C@H](NC(=O)OC)C(=O)N1CCC[C@H]1c1ncc(-c2ccc(-c3ccc(-c4cnc([C@@H]5CCCN5C(=O)[C@@H](NC(=O)OC)C(CC)CC)[nH]4)cc3)cc2)[nH]1 [OL-4, methyl ((1S)-2-ethyl-1-(((2S)-2-(4-(4′-(2-((2S)-1-((2S)-3-ethyl-2-((methoxycarbonyl)amino)pentanoyl)-2-pyrrolidinyl)-1H-imidazol-4-yl)-4-biphenylyl)-1H-imidazol-2-yl)-1-pyrrolidinyl)carbonyl)butyl)carbamate] | 1 to 999
CC(C)[C@@H](C(=O)N1CCC[C@H]1c1ncc(-c2ccc(-c3ccc(-c4cnc([C@@H]5CCCN5C(=O)[C@H](C(C)C)N5CCCNC5=O)[nH]4)cc3)cc2)[nH]1)N1CCCNC1=O [OL-5, 1,1′-(4,4′-biphenyldiylbis(1H-imidazole-4,2-diyl(2S)-2,1-pyrrolidinediyl((2S)-3-methyl-1-oxo-1,2-butanediyl)))ditetrahydro-2(1H)-pyrimidinone] | 1 to 999
COC(=O)N[C@@H](CC(C)C)C(=O)N1CCC[C@H]1c1ncc(-c2ccc(-c3ccc(-c4cnc([C@@H]5CCCN5C(=O)[C@H](CC(C)C)NC(=O)OC)[nH]4)cc3)cc2)[nH]1 [OL-6, methyl ((1S)-1-(((2S)-2-(4-(4′-(2-((2S)-1-((2S)-2-((methoxycarbonyl)amino)-4-methylpentanoyl)-2-pyrrolidinyl)-1H-imidazol-4-yl)-4-biphenylyl)-1H-imidazol-2-yl)-1-pyrrolidinyl)carbonyl)-3-methylbutyl)carbamate] | 1 to 999
COC(=O)N[C@H](C(=O)N1CC(F)(F)C[C@H]1c1ncc(-c2ccc(-c3ccc(-c4cnc([C@@H]5CC(F)(F)CN5C(=O)[C@@H](NC(=O)OC)C(C)C)[nH]4)cc3)cc2)[nH]1)C(C)C [OL-7, methyl ((1S)-1-(((2S)-2-(4-(4′-(2-((2S)-4,4-difluoro-1-((2S)-2-((methoxycarbonyl)amino)-3-methylbutanoyl)-2-pyrrolidinyl)-1H-imidazol-4-yl)-4-biphenylyl)-1H-imidazol-2-yl)-4,4-difluoro-1-pyrrolidinyl)carbonyl)-2-methylpropyl)carbamate] | 1 to 999
CN(C)[C@@H](C(=O)N1CC(F)(F)C[C@H]1c1ncc(-c2ccc(-c3ccc(-c4cnc([C@@H]5CC(F)(F)CN5C(=O)[C@@H](c5ccccc5)N(C)C)[nH]4)cc3)cc2)[nH]1)c1ccccc1 [OL-8, (1R,1′R)-2,2′-(4,4′-biphenyldiylbis(1H-imidazole-4,2-diyl((2S)-4,4-difluoro-2,1-pyrrolidinediyl)))bis(N,N-dimethyl-2-oxo-1-phenylethanamine)] | 1 to 999
CCN(CC)[C@@H](C(=O)N1CC(F)(F)C[C@H]1c1ncc(-c2ccc(-c3ccc(-c4cnc([C@@H]5CC(F)(F)CN5C(=O)[C@@H](c5ccccc5)N(CC)CC)[nH]4)cc3)cc2)[nH]1)c1ccccc1 [OL-9, (1R,1′R)-2,2′-(4,4′-biphenyldiylbis(1H-imidazole-4,2-diyl((2S)-4,4-difluoro-2,1-pyrrolidinediyl)))bis(N,N-diethyl-2-oxo-1-phenylethanamine)] | 1 to 999
COC(=O)N[C@H](C(=O)N1CC(F)(F)C[C@H]1c1ncc(-c2ccc(-c3ccc(-c4cnc([C@@H]5CC(F)(F)CN5C(=O)[C@@H](NC(=O)OC)[C@@H](C)OC)[nH]4)cc3)cc2)[nH]1)[C@@H](C)OC [OL-10, methyl ((1S,2R)-1-(((2S)-2-(4-(4′-(2-((2S)-4,4-difluoro-1-(N-(methoxycarbonyl)-O-methyl-L-threonyl)-2-pyrrolidinyl)-1H-imidazol-4-yl)-4-biphenylyl)-1H-imidazol-2-yl)-4,4-difluoro-1-pyrrolidinyl)carbonyl)-2-methoxypropyl)carbamate] | 1 to 999
